From patent publication US4592906A, “Ultra-violet absorbing compounds and compositions containing said compounds” (Graesser Laboratories, Ltd., priority 1984, dated 1986)
≈ marks a conversion by molar mass, not a printed value.

How the values were obtained:
Type in all cases: physicochemical
[1] = Solubility in liquid paraffin (mineral oil) at 23; details: organic solvent or mixture
Text: In particular, their solubilities in liquid paraffin are as follows:
Ester paraffin at 23 (% wt/vol)

[2] = Ultra-violet absorption (absorptivity, absorption maximum); details: for Absorptivity: c in g/l, path length b in centimeters
Experimental: The absorptivity of the following p-dimethylaminocinnamate was measured using the formula [formula] wherein c is concentration in g/l and b is path length in centimeters: […]

[3] = Physical state at room temperature
[4] = Miscibility with liquid paraffin (mineral oil), methanol and water

| Compound | solubility [1] [mg/mL] | Absorptivity [2] [L/g/cm] | other results |
| --- | --- | --- | --- |
| CCCCCCCCOC(=O)C=Cc1ccc(N(C)C)cc1 [(c), 1-octyl p-dimethylaminocinnamate, reference compound] | 25 (≈ 82.4 mM) | 89 | – |
| CCOC(=O)C=Cc1ccc(N(C)C)cc1 [(2), ethyl p-dimethylaminocinnamate, reference compound] | – | 125 | – |
| CCCCCCCOC(=O)C=Cc1ccc(N(C)C)cc1 [(b), 1-heptyl p-dimethylaminocinnamate] | 21 (≈ 72.6 mM) | – | – |
| CCCCC(CC)COC(=O)C=Cc1ccc(N(C)C)cc1 (centres unmarked) [Example 2-Ethylhexyl, 2-Ethylhexyl 4-dimethylaminocinnamate] | – | 101 | physical state at room temperature [3]: liquid at room temperature; miscibility with liquid paraffin (mineral oil) [4]: completely miscible; miscibility with methanol [4]: completely miscible; λmax ([2]; Example 1, prepared product): 360 nm |
| CCCCCCC(C)OC(=O)C=Cc1ccc(N(C)C)cc1 (centres unmarked) [Example 2-Octyl, 2-octyl 4-dimethylaminocinnamate] | – | 95 | physical state at room temperature [3]: liquid at room temperature; miscibility with liquid paraffin (mineral oil) [4]: completely miscible; miscibility with methanol [4]: completely miscible |

Now from value to molecule, other results behind:

| solubility [1] [mg/mL] | Absorptivity [2] [L/g/cm] | Compound | other results |
| --- | --- | --- | --- |
| 24 (≈ 91.8 mM) | – | CC(C)CCOC(=O)C=Cc1ccc(N(C)C)cc1 [(a), 3-methylbutyl-p-dimethylaminocinnamate] | – |
| 12 (≈ 38 mM) | – | CC1CC(OC(=O)C=Cc2ccc(N(C)C)cc2)CC(C)(C)C1 (centres unmarked) [(e), 3,3,5-trimethylcyclohexyl p-dimethylaminocinnamate] | – |
| 29 (≈ 91.3 mM) | – | CC(CCOC(=O)C=Cc1ccc(N(C)C)cc1)CC(C)(C)C (centres unmarked) [(d), 3,5,5-trimethylhexyl p-dimethylaminocinnamate] | – |
| 21 (≈ 63.3 mM) | – | CCCCCCCCCCOC(=O)C=Cc1ccc(N(C)C)cc1 [(f), 1-decyl p-dimethylaminocinnamate] | – |
